Assays:
[1] = tested on: MIA PaCa-2 tumor spheroids; assay: 3D spheroid formation/growth assay; assay type: cell-based, human; set-up: Spheroid Diameter Day 0 / Spheroid Diameter Day 9: unit not given here; details: for Spheroid Diameter Day 0: Day 0 (baseline); for Reduction of spheroid diameter: 9 days
Description: For the preliminary assessment of anticancer activity in a 2D cell culture system, an MIA PaCa-2 human pancreas epithelial carcinoma (CRL-1420™) cell line (ATCC, Manassas, VA, USA) was cultured in Dulbecco’s Modified Eagle Medium with 10% fetal bovine serum (FBS, v/v) (Gibco, Billings, MT, USA) and supplemented with 1% antibiotics (10,000 μg/mL streptomycin and 10,000 U/mL penicillin) (Gibco, Billings, MT, USA) at 37 °C in a humidified 5% CO2 atmosphere. For the in vitro modeling of the tumor microenvironment, compounds were also tested in a 3D spheroid test system. For this purpose, the MIA PaCa-2 human pancreas epithelial carcinoma (CRL-1420™) cell line and human dermal fibroblast cell line HDF (PCS-201-012) cells were used.
For 3D spheroid formation, the MIA PaCa-2 cells (PC cell line) and HDF cells were used according to the 3D Bioprinting method. To better simulate the tumor microenvironment, PC cells were mixed (1:1) with human fibroblasts. Briefly, the MIA PaCa-2 cells and human fibroblasts at 70–80% confluency were added to a 6-well plate and incubated with biocompatible NanoShuttle TM-PL (Bioprinting Kit, Greiner Bio-One, Germany) overnight at 37 °C in a humidified 5% CO2 atmosphere. After the nanoparticles were taken up by the cells, they were resuspended and seeded into an ultra-low attachment 96-well plate at a volume of 100 μL (2000 PC cells and 2000 human fibroblasts per well) volume. The plate was placed on a magnetic drive and incubated at 37 °C in a humidified 5% CO2 atmosphere until spheroids were formed. After two days of incubation, the spheroids were photographed using light microscopy (Carl Zeiss Primo Vert, Germany). Fresh medium containing 0.1, 1, 10, and 100 µM of tested compound was added to the wells. Photos were taken every 72 h, and the medium was replaced every 72 h. The effect of the tested compounds in 3D PC cell cultures was examined by measuring the size change of spheroids using ImageJ software (ImageJ 2.0 software, USA).

5-LOX = target: T1, 5-LOX (Homo sapiens, UniProt P09917); assay: Fluorometric 5-LOX inhibitor screening kit; assay type: biochemical; details: for 5-LOX Percent of İnhibition: at 10 µM
T1 construct: purchased MyBioSource
T1 sequence (P09917 1-674): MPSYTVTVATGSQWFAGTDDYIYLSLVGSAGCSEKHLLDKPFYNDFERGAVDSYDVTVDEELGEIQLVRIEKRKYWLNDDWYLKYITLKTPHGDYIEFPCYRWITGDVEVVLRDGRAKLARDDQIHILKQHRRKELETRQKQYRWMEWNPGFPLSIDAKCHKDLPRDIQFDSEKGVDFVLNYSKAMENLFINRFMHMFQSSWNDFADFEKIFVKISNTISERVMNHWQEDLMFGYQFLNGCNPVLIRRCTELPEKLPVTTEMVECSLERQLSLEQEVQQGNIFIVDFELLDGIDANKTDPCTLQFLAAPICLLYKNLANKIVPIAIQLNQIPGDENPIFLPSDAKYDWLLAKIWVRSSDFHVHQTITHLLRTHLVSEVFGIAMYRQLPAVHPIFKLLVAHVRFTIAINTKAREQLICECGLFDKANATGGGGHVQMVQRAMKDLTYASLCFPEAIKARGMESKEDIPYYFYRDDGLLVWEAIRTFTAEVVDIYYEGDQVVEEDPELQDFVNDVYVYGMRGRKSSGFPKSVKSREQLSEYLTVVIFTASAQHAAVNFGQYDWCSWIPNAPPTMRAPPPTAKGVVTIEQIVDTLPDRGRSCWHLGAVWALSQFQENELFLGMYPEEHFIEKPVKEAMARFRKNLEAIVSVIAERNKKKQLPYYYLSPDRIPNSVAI
Description: COX-1 and COX-2 inhibitory activities were tested using fluorometric COX-1 and COX-2 inhibitor screening kits (Abcam, United Kingdom), and the 5-LOX inhibitory activity was tested using a fluorometric 5-LOX inhibitor screening kit (MyBioSource, USA). These assays are based on the fluorometric detection of Prostaglandin G2 (a product generated by the COX enzyme) or on the fluorometric detection of the intermediate generated by the 5-LOX enzyme. The experiments were conducted in accordance with the manufacturers’ instructions.
For the determination of 5-LOX inhibitory activity, tested compounds were dissolved in DMSO (5 mM stock solution) and then diluted with the same solvent to obtain the test solutions. Test solutions were added to wells in an amount of 2 µL in the final 100 µL reaction volume. […] EC, SC, IC, and all test solutions were analyzed in triplicate.

| Compound | Spheroid Diameter Day 0 ([1]; 0.1 µM group) | Spheroid Diameter Day 9 ([1]; 0.1 µM) | Spheroid Diameter Day 0 ([1]; 1 µM group) | Spheroid Diameter Day 9 ([1]; 1 µM) | Spheroid Diameter Day 0 ([1]; 10 µM group) | Spheroid Diameter Day 9 ([1]; 10 µM) | Reduction in spheroid size ([1]; 10 µM, after 9 days of treatment) [%] | Spheroid Diameter Day 0 ([1]; 100 µM group) | Reduction of spheroid diameter ([1]; 100 µM) [%] | Spheroid Diameter Day 9 ([1]; 100 µM) | IC50 (5-LOX) [µM] | 5-LOX Percent of İnhibition (5-LOX) [%] | melting point [°C] | Spheroid state at the end of the 9 days ([1]; 10–100 µM) | Spheroid state at the end of the 9 days ([1]; 100 µM) |
| --- | --- | --- | --- | --- | --- | --- | --- | --- | --- | --- | --- | --- | --- | --- | --- |
| O=C(N/N=C/c1ccccc1O)c1cc(-c2ccccc2)c(-c2ccccc2)s1 [7a, N’-[(E)-(2-hydroxyphenyl)methylidene]-4,5-diphenylthiophene-2-carbohydrazide] | 1156.5 ± 14.2 | 5050.5 ± 36.9 | 1186.5 ± 91.9 | 1755.0 ± 58.9 | 1176.0 ± 31.1 | 636.0 ± 12.7 | 46 | 1183.0 ± 36.1 | 65 | 432.0 ± 17.4 | 3.78 ± 0.39 | 64.38 ± 0.46 | 238 | – | – |
| O=C(N/N=C/c1ccc(O)cc1)c1cc(-c2ccccc2)c(-c2ccccc2)s1 [7c, N’-[(E)-(4-hydroxyphenyl)methylidene]-4,5-diphenylthiophene-2-carbohydrazide] | 1118.0 ± 31.1 | 5415.0 ± 12.7 | 1168.0 ± 52.7 | 6174.0 ± 106.1 | 989.5 ± 54.1 | 3729.5 ± 12.8 | – | 940.5 ± 33.9 | – | 2207.0 ± 47.1 | 2.6 ± 0.11 | 55.05 ± 1.37 | 256 | – | – |
| COc1ccccc1/C=N/NC(=O)c1cc(-c2ccccc2)c(-c2ccccc2)s1 [7d, N’-[(E)-(2-methoxyphenyl)methylidene]-4,5-diphenylthiophene-2-carbohydrazide] | 1127.5 ± 36.1 | 4911.0 ± 117.4 | 1211.0 ± 17.9 | 6312.5 ± 24.8 | 1297.5 ± 55.1 | 1708.0 ± 87.1 | – | 974.0 ± 32.2 | 55 | 445.7 ± 64.1 | – | 15.61 ± 0.66 | 263 | – | – |
| COc1cc(/C=N/NC(=O)c2cc(-c3ccccc3)c(-c3ccccc3)s2)ccc1O [7e, N’-[(E)-(3-methoxy-4-hydroxyphenyl)methylidene]-4,5-diphenylthiophene-2-carbohydrazide] | 1181.5 ± 33.2 | 5607.5 ± 44.55 | 1153.0 ± 73.5 | 6396.0 ± 16.1 | – | – | – | – | – | – | 3.3 ± 0.07 | 60.69 ± 0.54 | 234 | disintegrated | – |
| COc1ccc(/C=N/NC(=O)c2cc(-c3ccccc3)c(-c3ccccc3)s2)cc1O [7f, N’-[(E)-(3-hydroxy-4-methoxyphenyl)methylidene]-4,5-diphenylthiophene-2-carbohydrazide] | 1110.0 ± 113.1 | 5823.0 ± 39.8 | 1108.0 ± 17.6 | 4336.0 ± 48.1 | 1215.0 ± 12.7 | 2806.0 ± 31.5 | – | – | – | – | 2.94 ± 0.2 | 60.56 ± 2.49 | 249 | – | disintegrated |

Source: PMC10223062, “Discovery of Novel Thiophene/Hydrazones: In Vitro and In Silico Studies against Pancreatic Cancer” (Pharmaceutics, 2023)
